Results as given in patent US20180289666A1, “FLAVONOLIGNANS FOR TREATMENT OF AUTOIMMUNE INFLAMMATORY DISEASES” (Macau University of Science and Technology, priority 2017, published 2018).

What was measured:
AIA rats [1] = test: Radiological and histopathological examination of hind paws / ankle joints of AIA rats; assay type: in vivo, Sprague-Dawley (SD) rats
Method: (§1) Disease severity and progression were evaluated by measurements of both hind paw volumes with a plethysmometer chamber (Yiyan technology, Jinan, China) and body weight with a 0.1 g precision balance (Sartorius AG, Göttingen, Germany) every two or three days after arthritis induction. For evaluation the arthritic scoring, the lesions of four paws of each rat (i.e., the arthritic signs) were graded by two separate investigators with a semi-quantitative scale: 0 (normal), 4-8 (mild changes), 8-12 (moderate changes), and 12-16 (severe changes) (van Eden W., et. al., J. E. Coligan, Editor. 2001, John Wiley: New York. p. 1-11). Erythrocyte sedimentation rate (ESR) was determined with ICSH (International Council for Standardization in Hematology) selected method with little modifications at day 42. Briefly, 120 μl of blood sample was taken directly and put into 30 μl of 0.109 mol/L sodium citrate, mixed well, and then transferred into a 1.0 mm×100 mm capillary tube (West China Medical University, ChengDu, China). The tubes were held obliquely at an angle of […] and the erythrocyte sedimentation rate was recorded at 15 min. The cytokines levels including IL-1β, TNF-α, IL-17, IL-33, MMP-9, TIMP-1 and PGE2 in serum were measured using commercially available ELISA kits according to the manufacturers instructions. At the end of the experiments, rat knee images were measured (mean of three readings per knee, Meinaite digital calliper, ShangHai, China) using a IVIS Lumina XRMS Series (PerkinElmer, America) (Esser, R. E., et al., Arthritis Rheum, 1995, 38(1): p. 129-38).
For histopathological assessment, arthritic paws were collected on day 42 after X-ray check, fixed with 10% phosphate buffered saline (PBS) buffered formalin, and decalcified for 3 days in formic acid. Sections from paraffin-embedded tissue were stained with hematoxylin and eosin (H&E). The obtained plasma was stored in −70° C. for metabolomic studies. The relative organ weight ratios (such as liver index, spleen index, kidney index, lung index) were calculated by dividing the weight of each organ with the body weight.

[2] = test system: MCD diet induced NASH mice; test: Plasma metabolomics by LC-MS/MS in MCD diet induced NASH mice; assay type: in vivo, C57Bl/6 mice; details: Silybin 300 mg/kg, * P < 0.05, ** P < 0.01
Method: (§2) The plasma sample (200 μL) was thawed on ice for 5 min prior to sample preparation and was mixed with 200 μL of 10 mM N-ethylmaleimide (NEM) in PBS buffer solution and 1000 μL of methanol containing internal standard (I.S.) Phe-d5 in 10 ng/ml. This mixture was incubated at −20° C. for 20 min, and then centrifuged at 12000 rpm for 10 min at 4° C. The supernatant was completely dried under nitrogen flow (Pressure Blowing Concentrator, Tokyo Rikakika, Tokyo, Japan) and reconstituted with distilled water.
LC-MS/MS analysis was performed on A Waters ACQUITY UPLC coupled with a 4000 Q-TRAP mass spectrometer. Chromatographic separation was carried on a Waters X Bridge™ BEH C18 analytical column (2.5 μm, 3.0×100 mm; Waters, Torrance, Calif.) with a mobile phase composed of 0.1% formic acid water (solvent A) and methanol (solvent B) which was running in a gradient program: 0-3.0 min (0%-1% B); 3.0-10.0 min (1-3% B); 10.0-14.0 min (3-50% B); 14.0-18.0 min (50-95% B); 18.0-22.0 min (95-0% B); followed by a 3-min re-equilibration step. The injection volume was 10 μl at 4° C. and flow rate was 0.6 ml/min. Electrospray (ESI) source were used in both positive and negative ion mode. The source parameters were set as follows: gas temperature: 450° C.; the ion spray voltage, ±4500 V; ion source gas 1 (nebulizer gas) 40 psi (N2); ion source gas 2 (auxiliary gas), 40 psi (N2); curtain gas: 20 psi. The MS/MS analysis was acquired in targeted MS/MS (MRM) mode with the collision energy ranging from 10 V to 40 V. All UPLC-MS data were obtained by AB Analyst Software (Version 1.6.2). Table 1 lists the 72 metabolites that are identified in the plasma samples from both AIA and MCD-diet induced NASH animal studies. The intensity of each ion was normalized with respect to peak area of I.S. for each chromatogram prior to multivariate statistical analysis.
The normalized data were exported and further processed by PCA and PLS-DA using a multivariate analysis package SIMCA-P software (Umea, Sweden). Model quality was evaluated based on the relevant values of R^2 and Q^2. Potential markers of interest were extracted from the values of variable importance in the projections (VIP>1), which were constructed from PLS-DA analysis. P values were obtained from Student's t-test (P<0.05). Hierarchical clustering analysis (HCA) was performed using bioinformatics software Multi Experiment Viewer (The Institute of Genomic Research, MA, USA) for visualization and organization of metabolite profiles.
Plasma samples of MCD-diet model were analyzed by LC-MS/MS for better understanding the functional metabolism in NASH model as well as the mechanism of Silybin treatment. […] OPLS-DA (R^2X=0.877, Q^2=0.749) was also used to identify and rank signature metabolites explaining most of the variance of metabolomes among the control, model and treatment group based on VIP scores and/or P value (FIG. 9). Unsupervised hierarchical clustering of this metabolite set classified NASH vs. control mice with 100% accuracy in both cohorts. A 15-metabolite signature with top-ranked VIP scores (VIP>1.0) separated control, model and Silybin treatment groups (p<0.05) was identified in Table 18 that distinguish each groups.

AIA rats [3] = test: Plasma metabolomics by LC-MS/MS in AIA rats; assay type: in vivo, Sprague-Dawley (SD) rats
Method: as §2
LC-MS/MS analysis was performed on A Waters ACQUITY UPLC coupled with a 4000 Q-TRAP mass spectrometer. Chromatographic separation was carried on a Waters X Bridge™ BEH C18 analytical column (2.5 μm, 3.0×100 mm; Waters, Torrance, Calif.) with a mobile phase composed of 0.1% formic acid water (solvent A) and methanol (solvent B) which was running in a gradient program: 0-3.0 min (0%-1% B); 3.0-10.0 min (1-3% B); 10.0-14.0 min (3-50% B); 14.0-18.0 min (50-95% B); 18.0-22.0 min (95-0% B); followed by a 3-min re-equilibration step. The injection volume was 10 μl at 4° C. and flow rate was 0.6 ml/min. Electrospray (ESI) source were used in both positive and negative ion mode. […]
The normalized data were exported and further processed by PCA and PLS-DA using a multivariate analysis package SIMCA-P software (Umea, Sweden). Model quality was evaluated based on the relevant values of R^2 and Q^2. […]

[4] = test system: IL-1β, TNF-α, IL-33, MMP-9, TIMP-1 and PGE2 in serum; test: Serum cytokine levels by ELISA in AIA rats; assay type: in vivo, Sprague-Dawley (SD) rats; details: 42 days treatment, versus vehicle-treated AIA rats
Method: as §1

## COc1cc([C@H]2Oc3cc([C@H]4Oc5cc(O)cc(O)c5C(=O)[C@@H]4O)ccc3O[C@@H]2CO)ccc1O (stereo in doubt) [Silybin]
AIA rats [1]; Silybin 100 mg/kg or 200 mg/kg, day 42
  cartilage and joint destruction of the arthritic joints (radiographs): ameliorated
AIA rats [1]; ankle joint sections, H&E
  infiltration of inflammatory cells, synovial hyperplasia: diminished
AIA rats [1]; day 42, H&E, FIG. 2C (MTX; Silybin 200 mg/kg), vehicle-treated AIA grade 2/3
  histological grade of representative ankle joint sections: 0
[2]
  Trend SB300 VS Model: Malondialdehyde (MDA): ↓**
[2]; plasma
  Trend SB300 VS Model: 4-(2-aminophenyl)-2,4-dioxobutanoic acid: ↓*
  Trend SB300 VS Model: 5-hydroxytryptamine: ↓**
  Trend SB300 VS Model: GSH: ↑*
  Trend SB300 VS Model: GSH/GSSG: ↑*
  Trend SB300 VS Model: GSSG: ↓*
  Trend SB300 VS Model: Glycochenodeoxycholic acid(GCDCA): ↓*
  Trend SB300 VS Model: L-Kynurenine: ↑**
  Trend SB300 VS Model: LPC(16:1): ↓*
  Trend SB300 VS Model: LPC(18:0): ↑*
  Trend SB300 VS Model: LPC(20:1): ↑*
  Trend SB300 VS Model: LPC(22:6): ↑*
  Trend SB300 VS Model: N-Phenylacetylglycine: ↓*
  Trend SB300 VS Model: Ophthalmic acid: ↓*
  Trend SB300 VS Model: Oxaloacetate: ↑*
  Trend SB300 VS Model: Proline: ↓*
  Trend SB300 VS Model: Trigonelline: ↑**
  Trend SB300 VS Model: Uric acid: ↓**
  Trend SB300 VS Model: Uridine: ↓**
  Trend SB300 VS Model: Ursodeoxycholic acid (UDCA): ↓*
AIA rats [3]
  metabolic network (plasma metabolites): effectively repair the metabolic network
[4]
  serum level of IL-1β: significant decrease
  serum level of MMP-9: significant decrease
  serum level of PGE2: significant decrease
  serum level of TIMP-1: significant decrease
  serum level of TNF-α: significant decrease
